Assay results taken from US6635652B1, “Azaindolizinone derivatives and cerebral function improvers containing the same as the active ingredient” (Zenyaku Kogyo Kabushiki Kaisha, priority 1999, dated 2003).
Marks after values point to notes of the source that are not given here.

Tests used:
[1] = tested on: amnesia of rats induced by scopolamine; test: Effects on scopolamine-induced amnesia (passive avoidance task, oral administration); type: in vivo; conditions: 60 min before retention trial, scopolamine hydrobromide 2 mg/kg i.p., passive avoidance latency, male Strague Dawley rats; for inhibition in vivo at 0.01 mg/kg / inhibition in vivo at 1 mg/kg: Rattus norvegicus, po, read-out: Inhibitory rate (%); for inhibition in vivo at 0.01 mg/kg / Inhibitory rate (%): 0.01 mg/kg p.o.; for inhibition in vivo at 1 mg/kg: 1 mg/kg p.o.
Description: Male rats of the Strague Dawley strain at 8 weeks of age (260±2 g body weight) were used for evaluation through passive avoidance task. The apparatus of passive avoidance task comprises illuminated and dark chambers which are separated from each other by a wall with a door. Floors are constituted by grids made of stainless steel; only the grid in the dark chamber is furnished with wiring for electrification.
Effected on the first and second days of testing was preparative training; each rat was placed in the illuminated chamber and left for 3 minutes to habituate to the apparatus. On the third day of testing, the rats were individually placed in the illuminated chamber and after entering the dark chamber, the door was closed and the floor grid was electrified to deliver electric shock (100 V, 0.4 mA, a period of 0.8 sec). In order to induce amnesia, scopolamine hydrobromide (2 mg/kg) was intraperitoneally injected 20 minutes before the electric shock was delivered. Retention in memory on the electric shock was tested 24 hours later; more specifically, retention in passive avoidance trial was measured in terms of a time interval (latency) from placement of each rat in the illuminated chamber to its entry into the dark chamber. The latency over 300 seconds was recorded as 300 seconds. Respective test compounds were suspended in an aqueous solution of 1% carboxymethyl cellulose and orally administered at a dose of 0.01 or 1 mg/kg 60 minutes before the trial.
Antiamnesic effects of the test compounds were evaluated by inhibitory rate (%) which is calculated by the following formula: [formula]
wherein T stands for latency and SC stands for administration of scopolamine hydrobromide. Experimental results are shown in the following table in which, as to each of the test compounds, only the dose showing higher inhibitory rate was indicated.

Row | SMILES | melting point | inhibition in vivo at 0.01 mg/kg [1] [%] | inhibition in vivo at 1 mg/kg [1] [%] | Inhibitory rate (%) [1]
1 | O=C1N=C2C=CC=CN2C1(Cc1ccc(F)cc1F)Cc1ccc(F)cc1F [Compound 28, 3,3-bis(2,4-Difluorobenzyl)imidazo[1,2-a]pyridin-2(3H)-one] | 269 to 271 °C | 62.7 |  | 
2 | CC(c1ccccc1)C1(C(C)c2ccccc2)C(=O)N=C2C(OCc3ccccc3)=CC=CN21 (stereo not drawn) [Compound 7, 8-Benzyloxy-3,3-bis(1-phenylethyl)imidazo[1,2-a]-pyridin-2(3H)-one] | 234 to 235 °C |  |  | 
3 | O=C1N=C2C=CC=CN2C1(Cc1cccc(Cl)c1)Cc1cccc(Cl)c1 [Compound 18, 3,3-bis(3-Chlorobenzyl)imidazo[1,2-a]pyridin-2(3H)-one] | 271 to 272 °C |  | 58.7 | 
4 | Cc1cccc(CC2(Cc3cccc(C)c3)C(=O)N=C3C(OCc4ccccc4)=CC=CN32)c1 [Compound 14, 8-Benzyloxy-3,3-bis(3-methylbenzyl)imidazo[1,2-a]pyridin-2(3H)-one] | 233 to 235 °C |  | 56.7 | 
5 | O=C1N=C2C=CC=CN2C1(Cc1ccc(O)cc1)Cc1ccc(O)cc1 [Compound 22, 3,3-bis(4-Hydroxybenzyl)imidazo[1,2-a]pyridin-2(3H)-one] | 276.5 to 277.5 °C | 37.4 |  | 
6 | O=C1N=C2C=CC=CN2C1(Cc1ccc(F)cc1)Cc1ccc(F)cc1 [Compound 16, 3,3-bis(4-Fluorobenzyl)imidazo[1,2-a]pyridin-2(3H)-one] | 290 to 292 °C | 55.4 |  | 
7 | O=C1N=C2C=CC=CN2C1(Cc1cccs1)Cc1cccs1 [Compound 30, 3,3-bis(2-Thienylmethyl)imidazo[1,2-a]pyridin-2(3H)-one] | 289.5 °C (dec.) | 79.5 |  | 
8 | O=C1N=C2C(NCc3ccccc3)=CC=CN2C1(Cc1ccccc1)Cc1ccccc1 [Compound 37, 3,3-Dibenzyl-8-benzylaminoimidazo[1,2-a]pyridin-2(3H)-one] | 250 °C | 56 |  | 
9 | O=C1N=C2C=CC=CN2C1(Cc1ccccc1)Cc1ccc(F)cc1 (stereo not drawn) [Compound 39, 3-Benzyl-3-(4-fluorobenzyl)imidazo[1,2-a]pyridin-2(3H)-one] | > 300 °C | 43.7 |  | 
10 | O=C1N=C2C=CC=CN2C12Cc1ccccc1C2 [Compound 24, Spiro[imidazo[1,2-a]pyridin-2(3H)-one-3,2′-indan]] |  |  |  | 56.8** %
11 | O=C1N=C2C(OCC3CC3)=CC=CN2C1(Cc1ccccc1)Cc1ccccc1 [Compound 3, 3,3-Dibenzyl-8-cyclopropylmethyloxyimidazo[1,2-a]-pyridin-2(3H)-one] | 236 to 237 °C |  | 47.4 | 
12 | COC1=CC=CN2C1=NC(=O)C2(Cc1ccccc1)Cc1ccccc1 [Compound 2, 3,3-Dibenzyl-8-methoxyimidazo[1,2-a]pyridin-2(3H)-one] | 274 to 275 °C |  | 53 | 
13 | CC(=O)NC1=CC=CN2C1=NC(=O)C2(Cc1ccccc1)Cc1ccccc1 [Compound 31, 8-Acetylamino-3,3-dibenzylimidazo[1,2-a]pyridin-2(3H)-one] | 235 to 237 °C |  | 60.4 | 
14 | CC1=CC2=NC(=O)C(Cc3ccccc3)(Cc3ccccc3)N2C(C)=C1 [Compound 9, 3,3-Dibenzyl-5,7-dimethylimidazo[1,2-a]pyridin-2(3H)-one] | 237 to 238 °C |  | 66.4 | 
15 | COc1cc2c(cc1OC)C(=O)C(CC1CCN(Cc3ccccc3)CC1)C2 (racemic) [Compound C, (R,S)-1-benzyl-4-(5,6-dimethoxy-1-indanon-2-yl)-methylpiperidine, reference compound] |  | 12.5 | 24.7 | 
16 | O=C1N=C2C=CC=CN2C12Cc1cccc3cccc(c13)C2 [Compound 27, Spiro[imidazo[1,2-a]pyridin-2(3H)-one-3,2′-[2,3]dihydrophenalene]] |  |  |  | 60.7* %
17 | C=CCOC1=CC=CN2C1=NC(=O)C2(Cc1ccccc1)Cc1ccccc1 [Compound 5, 8-Allyloxy-3,3-dibenzylimidazo[1,2-a]pyridin-2(3H)-one] | 214 to 215 °C |  | 34.8 | 
18 | O=C1N(c2ccccc2)c2ccccc2C1(Cc1ccncc1)Cc1ccncc1 [Compound A, 3,3-bis(4-pyridylmethyl)-1-phenylindolin-2-one, reference compound] |  | 8.8 | 20.9 | 
19 | O=C1N=C2C(Cl)=CC(Cl)=CN2C1(Cc1ccccc1)Cc1ccccc1 [Compound 12, 3,3-Dibenzyl-6,8-dichloroimidazo[1,2-a]pyridin-2(3H)-one] | 260 to 261 °C |  |  | 
20 | C=CCC1(CC=C)C(=O)N=C2C(OCc3ccccc3)=CC=CN21 [Compound 25, 3,3-Diallyl-8-benzyloxyimidazo[1,2-a]pyridin-2(3H)-one] | 160 to 162 °C |  |  | 
21 | O=C1N=C2C=CC=CN2C1(Cc1ccc(-c2ccccc2)cc1)Cc1ccc(-c2ccccc2)cc1 [Compound 20, 3,3-bis(4-Biphenylmethyl)imidazo[1,2-a]pyridin-2(3H)-one] |  |  |  | 30.2* %
22 | O=C(O)c1ccc(CC2(Cc3ccc(C(=O)O)cc3)C(=O)N=C3C=CC=CN32)cc1 [Compound 40, 3,3-bis(4-Carboxybenzyl)imidazo[1,2-a]pyridin-2(3H)-one] | > 300 °C |  | 40.7 | 
23 | CC1(C)C(=O)N=C2C=CC=CN21 [Compound 33, 3,3-Dimethylimidazo[1,2-a]pyridin-2(3H)-one] | 200 to 202 °C |  |  | 
24 | C#CCC1(CC#C)C(=O)N=C2C=CC=CN21 [Compound 35, 3,3-di(2-Propynyl)imidazo[1,2-a]pyridin-2(3H)-one] | 172 to 175 °C | 30.3 |  | 
25 | Nc1c2c(nc3ccccc13)CCCC2 [Compound B, 9-amino-1,2,3,4-tetrahydro-acridine, reference compound] |  | 24.1 | 54.9 | 

Further lines, with some results ahead:

Row | melting point | SMILES | inhibition in vivo at 0.01 mg/kg [1] [%] | inhibition in vivo at 1 mg/kg [1] [%] | Inhibitory rate (%) [1]
26 | 64 to 66 °C | C=CCC1(CC=C)C(=O)N=C2C=CC=CN21 [Compound 23, 3,3-Diallylimidazo[1,2-a]pyridin-2(3H)-one] | 53.6 |  | 
27 | 227 to 228 °C | O=C1N=C2C=CC=CN2C1(CCCc1ccccc1)CCCc1ccccc1 [Compound 26, 3,3-bis(3-Phenyl-1-propyl)imidazo[1,2-a]pyridin-2(3H)-one] | 53.5 |  | 
28 | 240 to 241 °C | O=C1N=C2C(OCc3ccccc3)=CC=CN2C1(Cc1ccccc1)Cc1ccccc1 [Compound 6, 3,3-Dibenzyl-8-benzyloxyimidazo[1,2-a]pyridin-2(3H)-one] | 58.8 |  | 
29 | 283 to 285 °C | NC1=CC=CN2C1=NC(=O)C2(Cc1ccccc1)Cc1ccccc1 [Compound 41, 8-Amino-3,3-dibenzylimidazo[1,2-a]pyridin-2(3H)-one] | 30 |  | 
30 | 205 °C (dec.) | O=C1N=C2C=CC=CN2C1(Cc1ccco1)Cc1ccco1 [Compound 32, 3,3-bis(2-Furylmethyl)imidazo[1,2-a]pyridin-2(3H)-one] | 77.4 |  | 
31 | 248 to 251 °C | COc1ccc(CC2(Cc3ccc(OC)cc3)C(=O)N=C3C=CC=CN32)cc1 [Compound 19, 3,3-bis(4-Methoxybenzyl)imidazo[1,2-a]pyridin-2(3H)-one] |  | 64.3 | 
32 | 246 to 248 °C | O=C1N=C2C=CC(Cl)=CN2C1(Cc1ccccc1)Cc1ccccc1 [Compound 4, 3,3-Dibenzyl-6-chloroimidazo[1,2-a]pyridin-2(3H)-one] |  | 58.5 | 
33 | 283 to 285 °C | O=C1N=C2C(O)=CC=CN2C1(Cc1ccccc1)Cc1ccccc1 [Compound 36, 3,3-Dibenzyl-8-hydroxyimidazo[1,2-a]pyridin-2(3H)-one] | 30 |  | 
34 | 228 to 230 °C | CC1=CC=CN2C1=NC(=O)C2(Cc1ccncc1)Cc1ccncc1 [Compound 15, 8-Methyl-3,3-bis(4-pyridylmethyl)imidazo[1,2-a]-pyridin-2(3H)-one] |  |  | 
35 | 100.5 to 102 °C | CCCCC1(CCCC)C(=O)N=C2C=CC=CN21 [Compound 34, 3,3-Dibutylimidazo[1,2-a]pyridin-2(3H)-one] | 59.6 |  | 
36 | 294 °C (dec.) | N#Cc1ccc(CC2(Cc3ccc(C#N)cc3)C(=O)N=C3C=CC=CN32)cc1 [Compound 21, 3,3-bis(4-Cyanobenzyl)imidazo[1,2-a]pyridin-2(3H)-one] | 58 |  | 
37 | 268 to 269 °C | O=C1N=C2C(OC3CCCC3)=CC=CN2C1(Cc1ccccc1)Cc1ccccc1 [Compound 11, 3,3-Dibenzyl-8-cyclopentyloxyimidazo[1,2-a]pyridin-2(3H)-one] |  | 48 | 
